The text below walks through data of patent publication US10285982B2, “3-(1H-pyrrolo[2,3-B]pyridin-2-yl)-1H-pyrazolo[3,4-C]pyridines and therapeutic uses thereof” (Samumed, LLC, priority 2015, dated 2019).

By EC50 is commonly meant the concentration that produces a half-maximal response. Read a high EC50 as a less potent agent. What is called inhibition is the relative decrease from the control value, in per cent.

Holding throughout (format): cell-based
The test system of one test is IL-6 (THP-1 cells). Nature of the test: IL-6 inhibition in LPS-stimulated THP-1 cells (HTRF). The following applies: Homo sapiens; for EC50: IL-6 in THP-1 cells, LPS 500 ng/mL, 22 hours; for inhibition at 10 µM: given where EC50 >10 μM, IL-6, THP-1 cells, LPS, read-out: percent inhibition at 10 μM. In outline:
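THP-1 cells, serum-reduced (1% FBS) for 24 h, were preincubated with compound (10-point 1:3 series from 10 μM, 0.1% DMSO) for 2 h, then stimulated with 500 ng/mL LPS for 22 h at 37° C. IL-6 was read by HTRF (665/620 nm ratio) and normalized to DMSO. EC50 from four-parameter fit; % inhibition at 10 μM given if EC50 >10 μM.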
For orientation: In TR-FRET formats the signal depends on donor and acceptor labels being close together.

For a further test, the system named is SW480 colon cancer cells. Briefly: Cell viability assay (CellTiter-Blue). To be noted: Homo sapiens, 96 h, four days; for inhibition at 10 µM: given where EC50 >10 μM, read-out: percent inhibition at 10 μM. In outline:
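SW480 colon cancer cells (~2×10^3/well) exposed to 8-point 1:3 dilutions from 10 μM to 0.0045 μM for four days at 37 °C/5% CO2. Viability read by resazurin (CellTiter-Blue) fluorescence after ~3 h, Ex 560/Em 590 nm. EC50 from non-linear regression; percent inhibition at 10 μM given when EC50 >10 μM.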
Background: The colour change of resazurin is a common sign of viable cells or microbes.

Test [1] deals with primary human fibroblasts derived from IPF patients (LL29 cells) treated with TGF-β1. Briefly: Inhibition of fibrotic process, αSMA staining in TGF-β1 treated LL29 fibroblasts. The following applies: Fibroblast; for EC50: 96 h, % αSMA positive LL29 cells, TGF-β1 20 ng/mL, 4 days; for inhibition at 10 µM: given where EC50 >10 μM, αSMA, LL29 cells, TGF-β1, read-out: percent inhibition at 10 μM. An outline of the steps:
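LL29 IPF-patient lung fibroblasts in 1% FBS F12 were given compounds (11-point, 10 μM to […], 0.1% DMSO) plus TGF-β1 20 ng/mL for 4 days at 37 °C. αSMA-positive fraction of live (SYTOX-negative) cells was imaged and normalized to TGF-β1/DMSO wells. EC50 by non-linear regression, or % inhibition at 10 μM if >10 μM.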

Regarding `CN(C)CCNc1cc(F)cc(-c2ccnc3[nH]c(-c4n[nH]c5cnc(-c6cncnc6)cc45)cc23)c1` [Compound 475, N^1-(3-Fluoro-5-(2-(5-(pyrimidin-5-yl)-1H-pyrazolo[3,4-c]pyridin-3-yl)-1H-pyrrolo[2,3-b]pyridin-4-yl)phenyl)-N^2,N^2-dimethylethane-1,2-diamine], the EC50 (with IL-6 (THP-1 cells); in the test on SW480 colon cancer cells; in test [1]) was above 10 µM each time. In addition, the inhibition at 10 µM in the test with IL-6 (THP-1 cells) came to 6.3%; in the test on SW480 colon cancer cells, 17%; in test [1], 27.5%.

Consider `Nc1cncc(-c2cc3c(-c4cc5c(-c6ccoc6)ccnc5[nH]4)n[nH]c3cn2)c1` [Compound 311, 5-(3-(4-(Furan-3-yl)-1H-pyrrolo[2,3-b]pyridin-2-yl)-1H-pyrazolo[3,4-c]pyridin-5-yl)pyridin-3-amine], for which the EC50 in the test on IL-6 (THP-1 cells) was above 10 µM; in the test with SW480 colon cancer cells, above 10 µM; in test [1], 1.03 µM. Also, the inhibition at 10 µM in the test on IL-6 (THP-1 cells) stood at 36.3%; in the test with SW480 colon cancer cells, 5.5%.

Consider `CC(C)(C)C(=O)Nc1cncc(-c2cc3c(-c4cc5c(-c6cccnc6)ccnc5[nH]4)n[nH]c3cn2)c1` [Compound 92, N-(5-(3-(4-(Pyridin-3-yl)-1H-pyrrolo[2,3-b]pyridin-2-yl)-1H-pyrazolo[3,4-c]pyridin-5-yl)pyridin-3-yl)pivalamide], for which the EC50 (with IL-6 (THP-1 cells); with SW480 colon cancer cells; in test [1]) was above 10 µM each time. Besides, the inhibition at 10 µM with IL-6 (THP-1 cells) was 23.3%; in the test with SW480 colon cancer cells it was 14.9%; in test [1], 2.4%.

For the compound `O=C(Nc1cncc(-c2cc3c(-c4cc5c(-c6ccncc6)ccnc5[nH]4)n[nH]c3cn2)c1)C1CCC1` [Compound 133, N-(5-(3-(4-(Pyridin-4-yl)-1H-pyrrolo[2,3-b]pyridin-2-yl)-1H-pyrazolo[3,4-c]pyridin-5-yl)pyridin-3-yl)cyclobutanecarboxamide], the EC50 in the test with IL-6 (THP-1 cells) is above 10 µM; in the test on SW480 colon cancer cells it was above 10 µM; in test [1], 2.6 µM. The inhibition at 10 µM in the test on IL-6 (THP-1 cells) turned out to be 11.9%; with SW480 colon cancer cells it was 3.7%.

Consider `CC(C)(C)C(=O)Nc1cncc(-c2cc3c(-c4cc5c(-c6cccc(F)c6)ccnc5[nH]4)n[nH]c3cn2)c1` [Compound 8, N-(5-(3-(4-(3-Fluorophenyl)-1H-pyrrolo[2,3-b]pyridin-2-yl)-1H-pyrazolo [3,4-c]pyridin-5-yl)pyridin-3-yl)pivalamide], for which the concentration giving a half-maximal response (EC50) with IL-6 (THP-1 cells) is above 10 µM; in the test with SW480 colon cancer cells, 0.723 µM; in test [1] it was 0.033 µM. The inhibition at 10 µM in the test with IL-6 (THP-1 cells) was 45.4%.

Consider `O=C(Cc1ccccc1)Nc1cncc(-c2cc3c(-c4cc5c(-c6ccncc6)ccnc5[nH]4)n[nH]c3cn2)c1` [Compound 122, 2-Phenyl-N-(5-(3-(4-(pyridin-4-yl)-1H-pyrrolo[2,3-b]pyridin-2-yl)-1H-pyrazolo[3,4-c]pyridin-5-yl)pyridin-3-yl)acetamide], for which the EC50 (in the test on IL-6 (THP-1 cells); with SW480 colon cancer cells; in test [1]) was above 10 µM each time. In addition, the values for the inhibition at 10 µM (in the test with IL-6 (THP-1 cells); in the test with SW480 colon cancer cells; in test [1]) were 34.8%, 7% and 8.1%, respectively.

`O=C(Nc1cncc(-c2cc3c(-c4cc5c(N6CCCCC6)ccnc5[nH]4)n[nH]c3cn2)c1)C1CC1` [Compound 188, N-(5-(3-(4-(Piperidin-1-yl)-1H-pyrrolo[2,3-b]pyridin-2-yl)-1H-pyrazolo[3,4-c]pyridin-5-yl)pyridin-3-yl)cyclopropanecarboxamide]: the EC50 in the test with IL-6 (THP-1 cells) was above 10 µM; in the test with SW480 colon cancer cells it was 1.28 µM; in test [1] it was 1.78 µM. The inhibition at 10 µM in the test on IL-6 (THP-1 cells) is 16.2%.

`O=C(Cc1ccccc1)Nc1cncc(-c2cc3c(-c4cc5cccnc5[nH]4)n[nH]c3cn2)c1` [Compound 262, N-(5-(3-(1H-Pyrrolo[2,3-b]pyridin-2-yl)-1H-pyrazolo[3,4-c]pyridin-5-yl)pyridin-3-yl)-2-phenylacetamide]: the EC50 (in the test with IL-6 (THP-1 cells); in the test on SW480 colon cancer cells; in test [1]) was above 10 µM throughout. Further, the figures for the inhibition at 10 µM (in the test with IL-6 (THP-1 cells); with SW480 colon cancer cells; in test [1]) were 26.7%, 26.5% and 45.5%, respectively.

As for `CC(C)Nc1cncc(-c2cc3c(-c4cc5c(-c6cccnc6)ccnc5[nH]4)n[nH]c3cn2)c1` [Compound 96, N-Isopropyl-5-(3-(4-(pyridin-3-yl)-1H-pyrrolo[2,3-b]pyridin-2-yl)-1H-pyrazolo[3,4-c]pyridin-5-yl)pyridin-3-amine], the EC50 (in the test on IL-6 (THP-1 cells); with SW480 colon cancer cells; in test [1]) was above 10 µM in each case. In addition, the inhibition at 10 µM in the test with IL-6 (THP-1 cells) stood at 23.5%; in the test on SW480 colon cancer cells, 20.5%; in test [1], 0%.

With `O=C(Nc1cncc(-c2cc3c(-c4cc5c(-c6ccc(F)cc6)ccnc5[nH]4)n[nH]c3cn2)c1)C1CCC1` [Compound 49, N-(5-(3-(4-(4-Fluorophenyl)-1H-pyrrolo[2,3-b]pyridin-2-yl)-1H-pyrazolo [3,4-c]pyridin-5-yl)pyridin-3-yl)cyclobutanecarboxamide], the values for the EC50 (in the test with IL-6 (THP-1 cells); in the test on SW480 colon cancer cells; in test [1]) were above 10 µM, 4.64 µM and 1.53 µM, respectively. For the same compound, the inhibition at 10 µM in the test with IL-6 (THP-1 cells) was found to be 26.1%.

As to `CC(C)CC(=O)Nc1cncc(-c2cc3c(-c4cc5cccnc5[nH]4)n[nH]c3cn2)c1` [Compound 254, N-(5-(3-(1H-Pyrrolo[2,3-b]pyridin-2-yl)-1H-pyrazolo[3,4-c]pyridin-5-yl)pyridin-3-yl)-3-methylbutanamide], the values for the EC50 (with IL-6 (THP-1 cells); with SW480 colon cancer cells; in test [1]) were 0.529 µM, above 10 µM and 9.98 µM, respectively. The inhibition at 10 µM in the test with SW480 colon cancer cells stood at 20.2%.

For the compound `CN1CCN(c2ccnc3[nH]c(-c4n[nH]c5cnc(-c6cncc(NC(=O)CC7CCNCC7)c6)cc45)cc23)CC1` [Compound 641, N-(5-(3-(4-(4-Methylpiperazin-1-yl)-1H-pyrrolo[2,3-b]pyridin-2-yl)-1H-pyrazolo[3,4-c]pyridin-5-yl)pyridin-3-yl)-2-(piperidin-4-yl)acetamide], the EC50 with IL-6 (THP-1 cells) is above 10 µM; with SW480 colon cancer cells it was above 10 µM; in test [1], 4.97 µM. Further, the inhibition at 10 µM was 29.6% in the test on IL-6 (THP-1 cells) and 13.1% with SW480 colon cancer cells.

In the case of `O=C(Nc1cncc(-c2cc3c(-c4cc5cccnc5[nH]4)n[nH]c3cn2)c1)c1ccccc1` [Compound 263, N-(5-(3-(1H-Pyrrolo[2,3-b]pyridin-2-yl)-1H-pyrazolo[3,4-c]pyridin-5-yl)pyridin-3-yl)benzamide], the EC50 (with IL-6 (THP-1 cells); in the test with SW480 colon cancer cells; in test [1]) was above 10 µM each time. The inhibition at 10 µM with IL-6 (THP-1 cells) came out at 39.2%; with SW480 colon cancer cells, 22.5%; in test [1] it was 55.3%.

`Fc1cccc(-c2ccnc3[nH]c(-c4n[nH]c5cnc(-c6cncnc6)cc45)cc23)c1` [Compound 27, 3-(4-(3-Fluorophenyl)-1H-pyrrolo[2,3-b]pyridin-2-yl)-5-(pyrimidin-5-yl)-1H-pyrazolo[3,4-c]pyridine]: the EC50 in the test on IL-6 (THP-1 cells) was above 10 µM; in the test on SW480 colon cancer cells, above 10 µM; in test [1], 2.82 µM. For the same compound, the inhibition at 10 µM in the test with IL-6 (THP-1 cells) amounted to 43.9%; in the test on SW480 colon cancer cells, 41.2%.

In the case of `O=C(Nc1cncc(-c2cc3c(-c4cc5cccnc5[nH]4)n[nH]c3cn2)c1)C1CC1` [Compound 272, N-(5-(3-(1H-Pyrrolo[2,3-b]pyridin-2-yl)-1H-pyrazolo[3,4-c]pyridin-5-yl)pyridin-3-yl)cyclopropanecarboxamide], the EC50 in the test with IL-6 (THP-1 cells) is 3.06 µM; with SW480 colon cancer cells it was above 10 µM; in test [1], 9.98 µM. In the test on SW480 colon cancer cells, the inhibition at 10 µM was 23.3%.

As for `Fc1cccc(-c2ccnc3[nH]c(-c4n[nH]c5cnc(-c6cccnc6)cc45)cc23)c1` [Compound 4, 3-(4-(3-Fluorophenyl)-1H-pyrrolo[2,3-b]pyridin-2-yl)-5-(pyridin-3-yl)-1H-pyrazolo[3,4-c]pyridine], the values for the EC50 (in the test on IL-6 (THP-1 cells); in the test with SW480 colon cancer cells; in test [1]) were above 10 µM, 2.73 µM and 1.03 µM, respectively. Besides, the inhibition at 10 µM in the test on IL-6 (THP-1 cells) amounted to 21.3%.

Turning to `CN1CCN(c2ccnc3[nH]c(-c4n[nH]c5cnc(-c6cncc(CNCC7CCCC7)c6)cc45)cc23)CC1` [Compound 249, 1-Cyclopentyl-N-((5-(3-(4-(4-methylpiperazin-1-yl)-1H-pyrrolo[2,3-b]pyridin-2-yl)-1H-pyrazolo[3,4-c]pyridin-5-yl)pyridin-3-yl)methyl)methanamine], the EC50 worked out at 7.87 µM in the test with IL-6 (THP-1 cells), 4.29 µM in the test with SW480 colon cancer cells and 6.92 µM in test [1].
